# In patent publication US20210052719A1, “A UNIVERSAL VACCINE AGAINST INFLUENZA” (Development Center for Biotechnology, priority 2017, published 2021):
# No end group written: not given here.
# Tests used:
# [1] = tested on: JJ peptide; assay: ELISA cross-reaction of induced IgGs with JJ peptide coated on plate; type: binding; settings: IgGs induced by the peptide, FIG. 2A, 2B
# Protocol: (§1) Antibody titers were determined using ELISA. First, a capture antibody (e.g., JJ peptide or various subtypes of hemagglutinins or fragments thereof) was coated on a 96-well microplate (100 μL per well of the diluted capture antibody). The plate was sealed and incubated at 4° C. overnight. Then, 100 μL of sample (e.g., antiserum) or standards in sample dilution buffer were added per well. The plate was sealed and incubated at room temperature for 1 hr.
# (§2) After incubation, 100 μL of a detection antibody (e.g., a horseradish peroxidase (HRP) coupled antibody), diluted in antibody dilution buffer, was added to each well. The plate was sealed and incubated at room temperature for 1 hr. Then, 200 μL of substrate solution (3,3′,5,5′-tetramethylbenzidine (TMB)) was added to each well. The reaction mixtures were incubated for 20 minutes at room temperature, without exposing the plate to direct light.
# (§3) After the reaction, 50 μL of stop solution (acid solution) was added to each well. Then, the optical density of each well was measured immediately, using a microplate reader set to 450 nm.
# [2] = tested on: influenza viruses of the H1 subtype; parameters: species or system influenza virus
# [3] = tested on: H5 subtype of hemagglutinin; type: binding, influenza virus
# [4] = tested on: influenza viruses of the H5 subtype; parameters: species or system influenza virus
# [5] = tested on: H1 subtype of hemagglutinin; assay: ELISA antibody titers against hemagglutinin subtypes; type: binding, influenza virus; settings: FIG. 3
# Protocol: as §1, §2, §3
# [6] = tested on: H3 subtype of hemagglutinin; assay: as above; type: binding, influenza virus; settings: FIG. 3
# Protocol: as §1, §2, §3
# [7] = antibody generation by immunizing mice with peptide, serum IgG by ELISA; type: in vivo, BALB/c and C57BL/6 mice; settings: for induction of antibody (specific anti-JJ IgG): 5 μg, 15 μg, or 45 μg dose, ELISA with JJ peptide coated, FIG. 2A, 2B
# Protocol: In this example, the peptide antigens in accordance with embodiments of the invention were used to induce antibody formation in mice. BALB/c and C57BL/6 mice (6-8 weeks old) were obtained from BioLASCO Taiwan (Taipei, Taiwan) or National Laboratory Animal Center (Taipei, Taiwan).
# […] Each group of mice was injected with a different peptide (Exp0-Exp5) solution as an antigen. For the first immunization, each mouse was given a subcutaneous injection with 100 μL (containing […] each) of the above prepared antigen solution.
# The second injection was given 10-14 days after the first injection. The solution for the second injection was prepared by mixing each peptide (6 different peptides, Exp0-Exp5, each at 1:1 mix) in Freund's incomplete adjuvant. The injections were repeated for subsequent immunizations every 10-14 days after the previous injections until antibodies could be detected in sera, which took from 3-6 injections.
# Mouse sera were collected at the following time points: preimmunization and at the middle time point between two adjacent injections. Once the antibodies became detectable in sera, the serum collections were performed every two weeks until antibodies could no longer be detected, which typically took about half a year. The serum collections were performed from the cheeks of the mice. Each time, 100 uL or less of blood was collected and the collection frequency was about once every two weeks. At the end of the experiments, mice were euthanized with carbon dioxide.
# as §1, with “The plate was sealed and incubated at room temperature for 1 hr.” left out
# as §3
# [8] = tested on: influenza viruses of the H3 subtype; parameters: species or system influenza virus
# [9] = tested on: H7 subtype of hemagglutinin; type: binding, influenza virus
# [10] = tested on: protease; settings: phenylalanine residues of JJ substituted
sequence,measurement,setting,value
GLFGAIAGFIE [JJ],binding of induced IgGs to JJ peptide (cross-reaction),[1],bind the JJ peptide
same,inhibition of hemagglutination by induced antibodies,[2],able to inhibit hemagglutination
same,reaction of antibodies generated with the peptide with hemagglutinin,[3],reacted
same,inhibition of hemagglutination by induced antibodies,[4],able to inhibit hemagglutination
same,reaction of antibodies generated with the peptide with hemagglutinin,[5],reacted
same,reaction of antibodies generated with the peptide with hemagglutinin,[6],reacted
same,induction of antibody (specific anti-JJ IgG),[7],induced antibody (IgG) production
same,inhibition of hemagglutination by induced antibodies,[8],able to inhibit hemagglutination
same,reaction of antibodies generated with the peptide with hemagglutinin,[9],reacted
GLHGAIAGLIENGW [JJ-4],protease resistance,[10],protease-resistant
GLLGAIAGPIEF [JJ-1],binding of induced IgGs to JJ peptide (cross-reaction),[1],bind the JJ peptide
same,inhibition of hemagglutination by induced antibodies,[2],able to inhibit hemagglutination
same,reaction of antibodies generated with the peptide with hemagglutinin,[3],reacted
same,inhibition of hemagglutination by induced antibodies,[4],able to inhibit hemagglutination
same,reaction of antibodies generated with the peptide with hemagglutinin,[5],reacted
same,reaction of antibodies generated with the peptide with hemagglutinin,[6],reacted
same,induction of antibody (specific anti-JJ IgG),[7],efficiently induce IgG production
same,inhibition of hemagglutination by induced antibodies,[8],able to inhibit hemagglutination
same,reaction of antibodies generated with the peptide with hemagglutinin,[9],reacted
same,protease resistance,[10],protease-resistant
GLLGAIAGPIEGGW [JJ-3],induction of antibody (specific anti-JJ3 IgG),"[7]; higher doses (15 μg and 45 μg), ELISA with peptide JJ-3 coated, FIG. 2C",induced the production of specific anti-JJ3 antibodies
same,protease resistance,[10],protease-resistant
GLMGAIAGPIEF [JJ-2],protease resistance,[10],protease-resistant
